Data published in the supplement of paper PMC5579334.
± gives the standard deviation of the averaged measurements.

Legend:
[1] = tested on: S1507-2; test: drug sensitivity score (DSS, CellTiter-Glo viability, 72 h) (DSS (dimensionless)); higher = more sensitive; extreme values may be limits of the assay
Outline: (§1)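 MPNST cell lines and primary human Schwann cells were seeded at 750–1000 cells per well into 384-well plates preprinted with each compound at five concentrations in 10-fold steps, then incubated 72 h at 37 °C, 5% CO2. CellTiter-Glo ATP luminescence gave viability, scaled between vehicle and positive-control wells, with duplicates averaged where present. Curves were fitted with a four-parameter logistic model. Percent inhibition refers to the top concentration, while drug sensitivity score and relative IC50, censored at the top concentration, come from these fits.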

[2] = tested on: HS-Sch-2; test: as above
Outline: as §1

[3] = tested on: STS26T; test: as above
Outline: as §1

[4] = tested on: YST-1; test: as above
Outline: as §1

[5] = tested on: ST8814; test: as above
Outline: as §1

[6] = tested on: HSC1 (primary human Schwann cells); test: as above
Outline: as §1

[7] = tested on: HSC2 (primary human Schwann cells); test: as above
Outline: as §1

[8] = tested on: S462; test: as above
Outline: as §1

[9] = tested on: HS-PSS; test: as above
Outline: as §1

[10] = tested on: S1507-2; test: % inhibition of CellTiter-Glo viability at highest tested concentration (72 h), relative to DMSO and benzethonium chloride controls; higher = more inhibition
Outline: as §1

[11] = tested on: HS-Sch-2; test: as above
Outline: as §1

[12] = tested on: STS26T; test: as above
Outline: as §1

[13] = tested on: YST-1; test: as above
Outline: as §1

[14] = tested on: ST8814; test: as above
Outline: as §1

[15] = tested on: HSC1 (primary human Schwann cells); test: as above
Outline: as §1

[16] = tested on: HSC2 (primary human Schwann cells); test: as above
Outline: as §1

[17] = tested on: S462; test: as above
Outline: as §1

[18] = tested on: HS-PSS; test: as above
Outline: as §1

[19] = tested on: S1507-2; test: drug sensitivity score (DSS, CellTox-Green cytotoxicity, 72 h) (DSS (dimensionless)); higher = more cytotoxic; extreme values may be limits of the assay
Outline: (§2)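 For 72 h at 37 °C, MPNST cell lines and primary human Schwann cells were exposed in 384-well plates to five 10-fold compound dilutions. CellTox-Green, added before seeding at a final 1:1000 dilution, gave fluorescence from DNA released by disrupted cells. Signals were scaled to vehicle and positive-control wells, cultures failing plate quality control were left out, and four-parameter logistic fits were applied. Relative IC50 and drug sensitivity score were derived from the fits, with IC50 censored at the top concentration.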

[20] = tested on: STS26T; test: as above
Outline: as §2

[21] = tested on: ST8814; test: as above
Outline: as §2

[22] = tested on: HSC1 (primary human Schwann cells); test: as above
Outline: as §2

[23] = tested on: HSC2 (primary human Schwann cells); test: as above
Outline: as §2

[24] = tested on: HS-PSS; test: as above
Outline: as §2

## CC(C)c1cc(-c2n[nH]c(=O)n2-c2ccc3c(ccn3C)c2)c(O)cc1O [Ganetespib] (max concentration tested 1000 nM)
[1]
  drug sensitivity score: 15.5
[2]
  drug sensitivity score: 19.6
[3]
  drug sensitivity score: 17.6
[4]
  drug sensitivity score: 13.7
[5]
  drug sensitivity score: 20.7
[6]
  drug sensitivity score: 21.5
[7]
  drug sensitivity score: 20.6
[8]
  drug sensitivity score: 19.2
[9]
  drug sensitivity score: 13.9
[10]
  % inhibition: 94.5%
[11]
  % inhibition: 101%
[12]
  % inhibition: 94.1%
[13]
  % inhibition: 79.1%
[14]
  % inhibition: 101%
[15]
  % inhibition: 99.1%
[16]
  % inhibition: 98.5%
[17]
  % inhibition: 99.6%
[18]
  % inhibition: 84.2%
[19]
  drug sensitivity score: 12.7
[20]
  drug sensitivity score: 10.9
[21]
  drug sensitivity score: 17.2
[22]
  drug sensitivity score: 21.1
[23]
  drug sensitivity score: 20.9
[24]
  drug sensitivity score: 4.34

## COc1cc2ncnc(Nc3ccc(F)c(Cl)c3)c2cc1OCCCN1CCOCC1 [Gefitinib] (max concentration tested 10000 nM)
[1]
  drug sensitivity score: 2.3 ± 1.1
[2]
  drug sensitivity score: 4.94
[3]
  drug sensitivity score: 2.37
[4]
  drug sensitivity score: 5.06
[5]
  drug sensitivity score: 3.34
[6]
  drug sensitivity score: 2.58
[7]
  drug sensitivity score: 3.41
[8]
  drug sensitivity score: 1.43 ± 0.69
[9]
  drug sensitivity score: 5.27
[10]
  % inhibition: 49.1 ± 12%
[11]
  % inhibition: 60.2%
[12]
  % inhibition: 53.6%
[13]
  % inhibition: 46.2%
[14]
  % inhibition: 68.4%
[15]
  % inhibition: 46.2%
[16]
  % inhibition: 54.7%
[17]
  % inhibition: 39.9 ± 12%
[18]
  % inhibition: 61.4%
[19]
  drug sensitivity score: 2.49 ± 3.5
[20]
  drug sensitivity score: 0.896
[21]
  drug sensitivity score: 5.95
[22]
  drug sensitivity score: 0
[23]
  drug sensitivity score: 0
[24]
  drug sensitivity score: 0

## Nc1ccn([C@@H]2O[C@H](CO)[C@@H](O)C2(F)F)c(=O)n1 [Gemcitabine] (max concentration tested 1000 nM)
[1]
  drug sensitivity score: 31.7 ± 4.1
[2]
  drug sensitivity score: 25.2
[3]
  drug sensitivity score: 28.3
[4]
  drug sensitivity score: 19.7
[5]
  drug sensitivity score: 27.7
[6]
  drug sensitivity score: 26.5
[7]
  drug sensitivity score: 27.7
[8]
  drug sensitivity score: 40.2 ± 1
[9]
  drug sensitivity score: 14.7
[10]
  % inhibition: 86.1 ± 3.8%
[11]
  % inhibition: 75%
[12]
  % inhibition: 83.8%
[13]
  % inhibition: 76.7%
[14]
  % inhibition: 96.5%
[15]
  % inhibition: 85%
[16]
  % inhibition: 84.5%
[17]
  % inhibition: 99.9 ± 2.2%
[18]
  % inhibition: 70.2%
[19]
  drug sensitivity score: 14.3 ± 2
[20]
  drug sensitivity score: 19.3
[21]
  drug sensitivity score: 21
[22]
  drug sensitivity score: 23.3
[23]
  drug sensitivity score: 18.5
[24]
  drug sensitivity score: 7.61

## CC(C)C[C@H](NC(=O)[C@@H](COC(C)(C)C)NC(=O)[C@H](Cc1ccc(O)cc1)NC(=O)[C@H](CO)NC(=O)[C@H](Cc1c[nH]c2ccccc12)NC(=O)[C@H](Cc1cnc[nH]1)NC(=O)[C@@H]1CCC(=O)N1)C(=O)N[C@@H](CCCNC(=N)N)C(=O)N1CCC[C@H]1C(=O)NNC(N)=O [Goserelin] (max concentration tested 10000 nM)
[1]
  drug sensitivity score: 0
[2]
  drug sensitivity score: 0.06
[3]
  drug sensitivity score: 0
[4]
  drug sensitivity score: 0
[5]
  drug sensitivity score: 0
[6]
  drug sensitivity score: 0
[7]
  drug sensitivity score: 0
[8]
  drug sensitivity score: 0
[9]
  drug sensitivity score: 0
[10]
  % inhibition: -0.69 ± 5%
[11]
  % inhibition: 11.2%
[12]
  % inhibition: 7.86%
[13]
  % inhibition: -0.8%
[14]
  % inhibition: 4.22%
[15]
  % inhibition: 6.11%
[16]
  % inhibition: -4.29%
[17]
  % inhibition: 0.735 ± 5%
[18]
  % inhibition: -4.24%
[19]
  drug sensitivity score: 0.454 ± 0.64
[20]
  drug sensitivity score: 0
[21]
  drug sensitivity score: 0
[22]
  drug sensitivity score: 0
[23]
  drug sensitivity score: 0
[24]
  drug sensitivity score: 0

## NC(=O)NO [Hydroxyurea] (max concentration tested 100000 nM)
[1]
  drug sensitivity score: 0
[2]
  drug sensitivity score: 0.56
[3]
  drug sensitivity score: 0
[4]
  drug sensitivity score: 0
[5]
  drug sensitivity score: 0
[6]
  drug sensitivity score: 0.337
[7]
  drug sensitivity score: 0
[8]
  drug sensitivity score: 0
[9]
  drug sensitivity score: 0
[10]
  % inhibition: 5.18 ± 7.5%
[11]
  % inhibition: 20.8%
[12]
  % inhibition: 3.66%
[13]
  % inhibition: 8.97%
[14]
  % inhibition: 3.1%
[15]
  % inhibition: 16.3%
[16]
  % inhibition: 9.58%
[17]
  % inhibition: -3.38 ± 4.4%
[18]
  % inhibition: 9.89%
[19]
  drug sensitivity score: 0
[20]
  drug sensitivity score: 0
[21]
  drug sensitivity score: 0
[22]
  drug sensitivity score: 0
[23]
  drug sensitivity score: 0
[24]
  drug sensitivity score: 0

## COc1cc2c(cc1-c1c(C)noc1C)ncc1[nH]c(=O)n([C@H](C)c3ccccn3)c12 [I-BET151] (max concentration tested 10000 nM)
[1]
  drug sensitivity score: 8.57 ± 0.91
[2]
  drug sensitivity score: 7.97
[3]
  drug sensitivity score: 3.63
[4]
  drug sensitivity score: 7.27
[5]
  drug sensitivity score: 7.98
[6]
  drug sensitivity score: 7.53
[7]
  drug sensitivity score: 7.44
[8]
  drug sensitivity score: 5.52 ± 1.1
[9]
  drug sensitivity score: 5.14
[10]
  % inhibition: 80.9 ± 2.5%
[11]
  % inhibition: 69.1%
[12]
  % inhibition: 39.3%
[13]
  % inhibition: 63.4%
[14]
  % inhibition: 69.7%
[15]
  % inhibition: 63.4%
[16]
  % inhibition: 67.2%
[17]
  % inhibition: 54.1 ± 0.65%
[18]
  % inhibition: 58.5%
[19]
  drug sensitivity score: 6.26 ± 2.9
[20]
  drug sensitivity score: 0
[21]
  drug sensitivity score: 3.3
[22]
  drug sensitivity score: 0.0349
[23]
  drug sensitivity score: 0
[24]
  drug sensitivity score: 0

## O=C(O)CNC(=O)c1c(O)c2ccccc2n(Cc2ccccc2)c1=O [IOX-2] (max concentration tested 50000 nM)
[1]
  drug sensitivity score: 1.81 ± 1.5
[2]
  drug sensitivity score: 6.06
[3]
  drug sensitivity score: 0.326
[4]
  drug sensitivity score: 0.01
[5]
  drug sensitivity score: 2.35
[6]
  drug sensitivity score: 0
[7]
  drug sensitivity score: 1.03
[8]
  drug sensitivity score: 0.3 ± 0.38
[9]
  drug sensitivity score: 5.08
[10]
  % inhibition: 26.3 ± 12%
[11]
  % inhibition: 89%
[12]
  % inhibition: 16.4%
[13]
  % inhibition: 12%
[14]
  % inhibition: 30.5%
[15]
  % inhibition: 9.77%
[16]
  % inhibition: 20.2%
[17]
  % inhibition: 12.2 ± 1.9%
[18]
  % inhibition: 65%
[19]
  drug sensitivity score: 0
[20]
  drug sensitivity score: 0
[21]
  drug sensitivity score: 0.888
[22]
  drug sensitivity score: 0
[23]
  drug sensitivity score: 0
[24]
  drug sensitivity score: 0
